The values below come from paper PMC7998309, “Structural-Based Optimizations of the Marine-Originated Meridianin C as Glucose Uptake Agents by Inhibiting GSK-3β” (Marine Drugs, 2021).

Data set [1] concerns HepG2 cells. The experiment in a line: Cell glucose uptake assay in HepG2 cells. Type of data set: cell-based, human. The note with it: relative glucose uptake at 5 µM in HepG2 cells, 3 h, compared with original glucose concentration of the medium; na = not active at 5 µM. How it is done: The hepatocyte cell line HepG2 cells obtained from the Type Culture Collection of the Chinese Academy of Sciences (Shanghai, China) were maintained in high-glucose DMEM (Gibco) supplemented with 10% fetal bovine serum (FBS) and 1% penicillin-streptomycin in an atmosphere of 5% CO2 at 37 °C.
Into a 96-well plate, 5 × 10^3 HepG2 cells per well were seeded. After 48 h, phenol red-free DMEM (Gibco) with 1% FBS was transferred to deprive the cells overnight, and then the tested compounds dissolved in a glucose-HEPES buffer (glucose concentration was 100 µg/mL) at a concentration of 5 µM were added to the culture system. Three hours later, the culture supernatants were collected and the glucose concentrations were detected using the Glucose (GO) Assay Kit (Sigma-Aldrich Corp.). Compared with the original glucose concentration of the buffer, the relative glucose uptake was calculated.

A short description of data set [2]: MTT assay for cell viability (cytotoxicity). In kind it is cell-based, human. The note with it: human; HepG2 cells, 48 h incubation, MTT.
Data set [3] relates to HepG2 cells. The experiment in a line: MTT assay for cell viability (cytotoxicity). In kind it is cell-based, human. Background: Tetrazolium dyes change colour on reduction, which living cells bring about.
Another data set has as its target T1, human GSK-3β (Homo sapiens, UniProt P49841).
T1 construct: purchased Invitrogen
The experiment in a line: Inhibition of recombinant GSK-3β (Z-lyte assay). In kind it is biochemical. The note with it: human GSK-3β, top concentration 30 μM. How it is done:
The activity of recombinant GSK-3β (Invitrogen) was measured in a Z-lyte assay of Invitrogen. In this assay, 100 nL of the compound solution in DMSO was transferred to a 384-well assay plate (the compound got threefold serial dilution, and the top concentration of the compound was 30 μM in the final reaction mixture). Then 5 μL of an enzyme (2 nM) and Ser/Thr 9 peptide (4 μM) mixture was added. After the enzyme and peptide pre-incubation with the compound for 30 min at 23 °C, 5 μL of ATP (12 μM) solution was added. The plate was incubated for 60 min at 23 °C. The reaction was stopped with 5 μL of development reagent. Fluorescence signals were detected with Envision (PerkinElmer, America) after 30 min of incubation, and the emission ratio (RFU 460 nm/RFU 535 nm) was used to analyze the data. The relative IC50 was reported using four-parameter logistic fit of IDBS Xlfit software. The IC50 values were calculated using the following equation: %Phosphorylation = 1 - (Emission Ratio × F100%) - C100%/(C0% - C100%) + [Emission Ratio × (F100% - F0%)] where
Emission ratio = Coumarin/Fluorescein ratio of sample wells
C100% = Average coumarin emission signal of the 100% phos. control
C0% = Average coumarin emission signal of the 0% phos. control
F100% = Average fluorescein emission signal of the 100% phos. control
F0% = Average fluorescein emission signal of the 0% phos. control %Inhibition = {1 - %Phos Sample/%Phos 0%Inhibition Ctl}*100

T1 sequence (P49841 whole entry): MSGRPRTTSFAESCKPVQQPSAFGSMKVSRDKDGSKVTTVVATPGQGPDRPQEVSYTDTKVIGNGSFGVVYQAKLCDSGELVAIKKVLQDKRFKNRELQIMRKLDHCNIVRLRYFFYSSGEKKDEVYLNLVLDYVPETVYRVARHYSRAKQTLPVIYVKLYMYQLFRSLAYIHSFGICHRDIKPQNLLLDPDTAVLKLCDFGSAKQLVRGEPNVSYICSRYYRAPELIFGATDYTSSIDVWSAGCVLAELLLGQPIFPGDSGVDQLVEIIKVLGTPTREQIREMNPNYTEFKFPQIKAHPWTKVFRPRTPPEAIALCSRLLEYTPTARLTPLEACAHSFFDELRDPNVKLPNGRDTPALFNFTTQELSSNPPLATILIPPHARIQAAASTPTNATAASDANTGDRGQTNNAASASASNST

As to `Cc1cccc(C)c1Nc1nccc(-c2c[nH]c3ccc(Br)cc23)n1` [B30, 4-(5-Bromo-1H-indol-3-yl)-N-(2,6-dimethylphenyl) pyrimidin-2-amine], the melting point – broadly, the temperature of the solid-liquid transition – was in the range of 228.5 to 229.4 °C. In the data set with HepG2 cells [1], the “Cell Glucose Uptake (%)” value came to 38%. The CC50 – broadly, the concentration that lowers cell viability or growth by half – at 48 h in data set [2] stood at 18.1 µM. Further, the “toxicity against HepG2 cells (in words)” value with HepG2 cells [3] is recorded as “no significant toxicity”. Also, at human GSK-3β, the 50% inhibitory concentration (IC50) (in general, the midpoint of a concentration-inhibition curve) stood at 24.4 µM.
